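Tested at 5 concentrations; 48 h exposure; 96-well plates; endpoints linearly interpolated, else capped at highest concentration. At the GI50, growth is halved.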 Active and inactive are the calls of the source. Cut-off read from the data, not from the text of the source: active = GI50 up to about 1.1 µM and inactive = higher.
Assays:
Experiment in all cases: DTP human tumour cell line panel, 48 h
HOP-62 = tested on: HOP-62
Malme-3M = tested on: Malme-3M
UO-31 = tested on: UO-31
TK-10 = tested on: TK-10
NCI-H522 = tested on: NCI-H522
OVCAR-5 = tested on: OVCAR-5
COLO 205 = tested on: COLO 205
A498 = tested on: A498
IGROV-1 = tested on: IGROV-1
A549 = tested on: A549
M14 = tested on: M14
SF-539 = tested on: SF-539
SK-MEL-5 = tested on: SK-MEL-5
OVCAR-3 = tested on: OVCAR-3
SR = tested on: SR
SW-620 = tested on: SW-620
SNB-19 = tested on: SNB-19

Measured: GI50

C[N+](C)(C)CC1CCCC(C[N+](C)(C)C)C1O (stereo not drawn)
inactive: HOP-62 > 100 µM | Malme-3M > 100 µM | UO-31 > 100 µM | TK-10 > 100 µM | NCI-H522 > 100 µM | OVCAR-5 > 100 µM | COLO 205 > 100 µM | A498 > 100 µM | IGROV-1 > 100 µM | A549 > 100 µM | M14 > 100 µM | SF-539 > 100 µM | SK-MEL-5 > 100 µM | OVCAR-3 > 100 µM | SR > 100 µM | SW-620 > 100 µM

C#CC1(O)CCC2[C@@H]3CCc4cc(Oc5nc(F)nc(-c6c7ccccc7c(SCC)n6CCC)n5)ccc4C3CC[C@@]21C (stereo partly drawn)
inactive: HOP-62 > 100 µM | Malme-3M > 100 µM | UO-31 33.3 µM | TK-10 > 100 µM | NCI-H522 > 10 µM | OVCAR-5 > 100 µM | COLO 205 > 100 µM | A498 > 100 µM | IGROV-1 94.6 µM | A549 > 100 µM | M14 40.5 µM | SF-539 58.9 µM | SK-MEL-5 63.8 µM | OVCAR-3 > 100 µM | SR 34.7 µM | SW-620 > 100 µM

CCn1c2c(c3ccccc31)C(c1ccccc1)CC1C(=O)N(c3ccccc3)C(=O)C21 (stereo not drawn)
inactive: HOP-62 87.1 µM | Malme-3M 24 µM | UO-31 36.1 µM | TK-10 > 100 µM | NCI-H522 72.8 µM | OVCAR-5 > 100 µM | COLO 205 > 100 µM | A498 5.78 µM | IGROV-1 33 µM | A549 21.9 µM | SNB-19 50.5 µM | M14 > 100 µM | SF-539 35.4 µM | SK-MEL-5 31.7 µM | OVCAR-3 > 100 µM | SW-620 > 100 µM

CC(C)(C)C1CCC2c3c([nH]c4ccccc34)C3C(=O)N(c4ccccc4)C(=O)C3C2C1 (stereo not drawn)
inactive: Malme-3M 2.4 µM | UO-31 2.62 µM | TK-10 3.71 µM | OVCAR-5 > 100 µM | COLO 205 4.35 µM | A498 2.5 µM | IGROV-1 11.1 µM | A549 10.8 µM | SNB-19 6.59 µM | M14 4.43 µM | SF-539 8.97 µM | SK-MEL-5 > 10 µM | OVCAR-3 4.01 µM | SR 6.27 µM | SW-620 8.34 µM

O=C(N/C(=C\c1c(O)ccc2ccccc12)c1nc2ccccc2[nH]1)c1ccccc1
inactive: HOP-62 25.9 µM | Malme-3M > 100 µM | UO-31 42.6 µM | TK-10 > 100 µM | NCI-H522 > 100 µM | OVCAR-5 > 100 µM | COLO 205 > 100 µM | A498 38.2 µM | IGROV-1 > 100 µM | A549 > 100 µM | SNB-19 53.8 µM | M14 > 100 µM | SF-539 29.1 µM | SK-MEL-5 > 100 µM | OVCAR-3 > 100 µM | SW-620 > 100 µM

N#CC1(C#N)C=CC(=C2OCC3CCCN23)C=C1 (stereo not drawn)
inactive: HOP-62 > 100 µM | Malme-3M > 100 µM | UO-31 > 100 µM | TK-10 > 100 µM | NCI-H522 > 100 µM | OVCAR-5 > 100 µM | COLO 205 > 100 µM | A498 > 100 µM | IGROV-1 > 100 µM | A549 > 100 µM | SNB-19 > 100 µM | M14 > 100 µM | SF-539 > 100 µM | SK-MEL-5 37.8 µM | SW-620 > 100 µM

CCOC(=O)C1C(=O)CC(=O)C2CCCCC21 (stereo not drawn)
inactive: HOP-62 > 100 µM | Malme-3M > 100 µM | UO-31 > 100 µM | TK-10 > 100 µM | NCI-H522 > 100 µM | OVCAR-5 > 100 µM | COLO 205 > 100 µM | A498 > 100 µM | IGROV-1 > 100 µM | A549 > 100 µM | SNB-19 > 100 µM | M14 > 100 µM | SF-539 > 100 µM | SK-MEL-5 > 100 µM | OVCAR-3 > 100 µM | SW-620 > 100 µM

O=c1oc2cc(O)ccc2c2[nH]c3cc(O)ccc3c12
inactive: HOP-62 24.3 µM | Malme-3M 32.6 µM | UO-31 26.2 µM | TK-10 36.3 µM | NCI-H522 11.7 µM | COLO 205 23.9 µM | A498 36.1 µM | IGROV-1 23.1 µM | A549 42.7 µM | SNB-19 18.6 µM | M14 36.4 µM | SF-539 18.9 µM | OVCAR-3 20.7 µM | SR 21.2 µM | SW-620 34 µM

CC(C)(C)c1cc(CCCCCCCC2(CCCCCCCc3cc(C(C)(C)C)cc(C(C)(C)C)c3)OC(COCCOCCCCCC#N)C(COCCOCCCCCC#N)O2)cc(C(C)(C)C)c1 (stereo not drawn)
inactive: HOP-62 > 100 µM | Malme-3M > 100 µM | UO-31 > 100 µM | TK-10 > 100 µM | NCI-H522 > 100 µM | OVCAR-5 > 100 µM | COLO 205 > 100 µM | A498 > 100 µM | IGROV-1 > 100 µM | A549 > 100 µM | SNB-19 > 100 µM | M14 > 100 µM | SK-MEL-5 > 100 µM | OVCAR-3 > 100 µM | SW-620 > 100 µM

CN(C(=O)C12C3C4C1C1C2C3C41C#N)C(C)(C)C (stereo not drawn)
inactive: HOP-62 > 100 µM | Malme-3M > 100 µM | UO-31 > 100 µM | TK-10 > 100 µM | NCI-H522 > 100 µM | OVCAR-5 > 100 µM | COLO 205 > 100 µM | A498 > 100 µM | IGROV-1 > 100 µM | A549 > 100 µM | SNB-19 > 100 µM | M14 > 100 µM | SF-539 > 100 µM | SK-MEL-5 > 100 µM | OVCAR-3 > 100 µM | SW-620 > 100 µM

COc1ccc2c([nH]c3cc(O)c(C)cc32)c1C=O
inactive: HOP-62 > 25 µM | Malme-3M > 25 µM | UO-31 > 25 µM | TK-10 > 25 µM | NCI-H522 20 µM | OVCAR-5 > 25 µM | COLO 205 > 25 µM | IGROV-1 > 25 µM | A549 18.5 µM | SNB-19 > 25 µM | M14 > 25 µM | SF-539 > 25 µM | SK-MEL-5 > 25 µM | OVCAR-3 > 25 µM | SR 18.9 µM | SW-620 > 25 µM

O=C1CCC2(c3ccccc3)Nc3cc(Cl)ccc3N12 (stereo not drawn)
inactive: HOP-62 25.4 µM | Malme-3M 25.8 µM | UO-31 25.5 µM | TK-10 39.2 µM | NCI-H522 26.9 µM | OVCAR-5 58.9 µM | COLO 205 17.7 µM | A498 35.4 µM | IGROV-1 41.2 µM | A549 31 µM | M14 30.1 µM | SF-539 41.3 µM | SK-MEL-5 16.9 µM | OVCAR-3 21.8 µM | SW-620 41.5 µM

O=C1C=C/C(=N\c2ccc3c(c2)C(Br)c2ccccc2-3)O1 (stereo not drawn)
inactive: HOP-62 > 100 µM | Malme-3M > 100 µM | UO-31 > 100 µM | TK-10 > 100 µM | NCI-H522 25.9 µM | COLO 205 > 100 µM | IGROV-1 > 100 µM | A549 > 100 µM | SNB-19 > 100 µM | M14 > 100 µM | SF-539 > 100 µM | OVCAR-3 > 100 µM | SR 20.2 µM | SW-620 27.6 µM

COc1ccc(/C=C2\CNC/C(=C\c3ccc(OC)cc3)C2=O)cc1
inactive: HOP-62 > 100 µM | Malme-3M > 100 µM | UO-31 > 100 µM | TK-10 > 100 µM | OVCAR-5 > 100 µM | COLO 205 49.4 µM | IGROV-1 48.2 µM | A549 59.4 µM | SNB-19 80.2 µM | M14 > 100 µM | SF-539 13.6 µM | SK-MEL-5 > 100 µM | OVCAR-3 35 µM | SR 24.8 µM | SW-620 15.8 µM

ON/N=C/c1cc2c(cc1Br)OCO2
inactive: HOP-62 > 386 µM | Malme-3M > 386 µM | TK-10 > 386 µM | NCI-H522 230 µM | OVCAR-5 164 µM | COLO 205 > 386 µM | IGROV-1 > 386 µM | A549 > 386 µM | SNB-19 > 386 µM | SF-539 > 386 µM | SK-MEL-5 > 386 µM | OVCAR-3 295 µM | SR > 386 µM | SW-620 > 386 µM

CC(=O)O/N=C(Cl)/C(Cl)=N/OC(C)=O
inactive: HOP-62 > 100 µM | Malme-3M > 100 µM | UO-31 > 100 µM | TK-10 > 100 µM | NCI-H522 > 100 µM | OVCAR-5 > 100 µM | A498 > 100 µM | IGROV-1 > 100 µM | A549 > 100 µM | SNB-19 > 100 µM | M14 > 100 µM | SF-539 > 100 µM | SR > 100 µM | SW-620 > 100 µM

N/C(=N\O)N/N=C/c1cccs1
inactive: HOP-62 24.7 µM | Malme-3M 55.8 µM | UO-31 55.1 µM | TK-10 > 100 µM | NCI-H522 25.1 µM | OVCAR-5 47.1 µM | COLO 205 55.7 µM | A498 > 100 µM | IGROV-1 35.4 µM | A549 23.9 µM | SNB-19 > 100 µM | M14 47.1 µM | SF-539 > 100 µM | OVCAR-3 34.9 µM | SR 67.3 µM | SW-620 > 100 µM

COc1cc(OC)c2c(=O)cc(-c3ccc(OC)c(OC)c3OC)oc2c1
inactive: HOP-62 27.7 µM | Malme-3M > 100 µM | TK-10 > 100 µM | NCI-H522 38.9 µM | OVCAR-5 > 100 µM | COLO 205 > 100 µM | IGROV-1 > 100 µM | A549 > 100 µM | SNB-19 > 100 µM | M14 > 100 µM | SF-539 31.9 µM | OVCAR-3 > 100 µM | SW-620 > 100 µM

From ChEMBL document CHEMBL1201862, “PubChem BioAssay data set” (2004)
